The test system of one test is pMLKL. Briefly: Immunofluorescence staining of pMLKL in HT-29 cells. It is filed as cell-based, human. The settings on record: monoclonal anti-pMLKL antibody, Experimental-section numbering. An excerpt:
This is a crucial step in the translocation of MLKL from the cytoplasm to the cell membrane, where it mediates ion influx and/or causes the disruption of cell structures.^[5] To evaluate the mechanism of this series of compounds on MLKL, we detected the status (state of oligomerization and phosphorylation) of MLKL under TSZ stimulation in the presence of compound 12 or 15. […] Next, we evaluated the effects of MLKL inhibitors on the translocation of MLKL from the cytoplasm to the cell membrane. HT-29 cells were treated with TSZ in the presence of RIPA-56, NSA, compound 12, or compound 15 for 6 h. The proteins from cell lysates were separated and the soluble phase and membrane phase were analyzed separately with anti-MLKL and anti-pMLKL antibodies. […] We also performed immunofluorescence staining in HT-29 cells using a monoclonal anti-pMLKL antibody. After TSZ stimulation, large, bright-green fluorescent dots (pMLKL) were present in the plasma membrane. […] Sun, X. Wang, Trends Biochem. Sci 2014, 39, 587-593; bM. Pasparakis, P. Vandenabeele, Nature 2015, 517, 311-320. • 2. N. Holler, R. Zaru, O. Micheau, M. Thome, A. Attinger, S. Valitutti, J.-L. Bodmer, P. Schneider, B. Seed, J. Tschopp, Nat. Immunol. 2000, 1, 489-495. • 3. aS. He, L. Wang, L. Miao, T. Wang, F. Du, L. Zhao, X. Wang, Cell 2009, 137, 1100-1111; bD.-W. Zhang, J. Shao, J. Lin, N. Zhang, B.-J. Lu, S.-C. Lin, M.-Q. Dong, J. Han, Science 2009, 325, 332-336. • 4. L. Sun, H. et al. Cell 2012, 148, 213-227. • 5. aH. Wang, L. Sun, L. Su, J. Rizo, L. Liu, L.-F. Wang, F.-S. Wang, X. Wang, Mol. Cell 2014, 54, 133-146; bZ. Cai, S. Jitkaew, J. Zhao, H.-C. Chiang, S. Choksi, J. Liu, Y. Ward, L.-g. Wu, Z.-G. Liu, Nat. Cell Biol. 2014, 16, 55-65. • 6. aJ. Wu, et al., Cell Res. 2013, 23, 994-1006; bD. Ofengeim, Y. Ito, A. Najafov, Y. Zhang, B. Shan, J. P. DeWitt, J. Ye, X. Zhang, A. Chang, H. Vakifahmetoglu-Norberg, Cell reports 2015, 10, 1836-1849; cM. Pierdomenico, A. Negroni, L. Stronati, R. Vitali, E. Prete, J. Bertin, P. J. Gough, M. Aloi, S. Cucchiara, Am J. Gastroenterol. 2014, 109, 279-287. • 7. […]

A further test has as its system HT-29 cells. The test is described as follows: Necroptosis assay (TNF-α/Smac mimetic/z-VAD, TSZ-induced) in HT-29 cells. It is filed as cell-based, human. The method, boiled down: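 HT-29 cells were challenged with 20 ng/ml TNF-α, 100 nM Smac mimetic and 20 mM z-VAD while compound was added at the same time (library screen at 10 mM). After 24 h, viability was read as ATP luminescence (CellTiter-Glo) and normalized to DMSO-treated cells; values are means ± SD of duplicates.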

A further test has as its target T1, RIP1 (Homo sapiens, UniProt Q13546).
T1 sequence (Q13546 1-671): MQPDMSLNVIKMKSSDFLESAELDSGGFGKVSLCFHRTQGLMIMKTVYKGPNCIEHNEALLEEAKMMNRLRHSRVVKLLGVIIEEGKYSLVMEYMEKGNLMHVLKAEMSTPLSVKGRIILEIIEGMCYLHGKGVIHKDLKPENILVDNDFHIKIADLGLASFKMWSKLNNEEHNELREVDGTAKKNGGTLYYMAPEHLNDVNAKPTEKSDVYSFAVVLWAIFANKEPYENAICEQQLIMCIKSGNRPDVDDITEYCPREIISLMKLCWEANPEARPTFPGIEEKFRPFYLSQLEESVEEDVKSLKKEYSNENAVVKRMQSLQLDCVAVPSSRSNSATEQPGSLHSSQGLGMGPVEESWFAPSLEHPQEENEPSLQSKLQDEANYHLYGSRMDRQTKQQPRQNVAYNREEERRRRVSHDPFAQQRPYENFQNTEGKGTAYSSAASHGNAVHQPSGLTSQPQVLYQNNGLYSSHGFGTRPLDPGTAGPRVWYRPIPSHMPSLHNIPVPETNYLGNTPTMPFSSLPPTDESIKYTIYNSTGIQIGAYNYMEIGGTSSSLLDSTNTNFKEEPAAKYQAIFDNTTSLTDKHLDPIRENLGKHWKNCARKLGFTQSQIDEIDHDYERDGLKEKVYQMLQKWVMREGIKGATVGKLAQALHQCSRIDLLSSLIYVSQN
Briefly: RIP1 kinase activity enzymatic assay. It is filed as biochemical. The protocol:
(§1) To determine whether the direct target of this series of compounds is MLKL, we performed activity based protein profiling (ABPP). Compound 12, an affinity probe, was incubated with MLKL-flag-HT-29 cell lysates for 2 hours, followed by a click reaction to conjugate the probe to a biotin-tag. The biotin-labeled compound-protein complexes were pulled down and analysed via SDS-PAGE.

For another test, the target named is RIP3 (Homo sapiens, UniProt Q9Y572). Briefly: RIP3 kinase activity enzymatic assay. It is filed as biochemical. The protocol:
as §1

The target of a further test is VEGFR2 (Homo sapiens, UniProt P35968). The settings on record: cited from earlier work.
[1] abbreviates: Series 1 (Table 1) compounds 1-146, HT-29 cells, TNF-α/Smac mimetic/z-VAD, 24 hrs, cell viability by ATP level, read-out: Series 1 compound necroptosis activity.
Where [2] appears, read: Homo sapiens, Series 2 (Table 2) compounds, HT-29 necroptosis assay, read-out: Series 2 compound necroptosis activity.

SMILES strings stand for the structures. Where two headings read alike, the source gives them in different places.

Sequence of VEGFR2 (P35968 20-1356, species assumed): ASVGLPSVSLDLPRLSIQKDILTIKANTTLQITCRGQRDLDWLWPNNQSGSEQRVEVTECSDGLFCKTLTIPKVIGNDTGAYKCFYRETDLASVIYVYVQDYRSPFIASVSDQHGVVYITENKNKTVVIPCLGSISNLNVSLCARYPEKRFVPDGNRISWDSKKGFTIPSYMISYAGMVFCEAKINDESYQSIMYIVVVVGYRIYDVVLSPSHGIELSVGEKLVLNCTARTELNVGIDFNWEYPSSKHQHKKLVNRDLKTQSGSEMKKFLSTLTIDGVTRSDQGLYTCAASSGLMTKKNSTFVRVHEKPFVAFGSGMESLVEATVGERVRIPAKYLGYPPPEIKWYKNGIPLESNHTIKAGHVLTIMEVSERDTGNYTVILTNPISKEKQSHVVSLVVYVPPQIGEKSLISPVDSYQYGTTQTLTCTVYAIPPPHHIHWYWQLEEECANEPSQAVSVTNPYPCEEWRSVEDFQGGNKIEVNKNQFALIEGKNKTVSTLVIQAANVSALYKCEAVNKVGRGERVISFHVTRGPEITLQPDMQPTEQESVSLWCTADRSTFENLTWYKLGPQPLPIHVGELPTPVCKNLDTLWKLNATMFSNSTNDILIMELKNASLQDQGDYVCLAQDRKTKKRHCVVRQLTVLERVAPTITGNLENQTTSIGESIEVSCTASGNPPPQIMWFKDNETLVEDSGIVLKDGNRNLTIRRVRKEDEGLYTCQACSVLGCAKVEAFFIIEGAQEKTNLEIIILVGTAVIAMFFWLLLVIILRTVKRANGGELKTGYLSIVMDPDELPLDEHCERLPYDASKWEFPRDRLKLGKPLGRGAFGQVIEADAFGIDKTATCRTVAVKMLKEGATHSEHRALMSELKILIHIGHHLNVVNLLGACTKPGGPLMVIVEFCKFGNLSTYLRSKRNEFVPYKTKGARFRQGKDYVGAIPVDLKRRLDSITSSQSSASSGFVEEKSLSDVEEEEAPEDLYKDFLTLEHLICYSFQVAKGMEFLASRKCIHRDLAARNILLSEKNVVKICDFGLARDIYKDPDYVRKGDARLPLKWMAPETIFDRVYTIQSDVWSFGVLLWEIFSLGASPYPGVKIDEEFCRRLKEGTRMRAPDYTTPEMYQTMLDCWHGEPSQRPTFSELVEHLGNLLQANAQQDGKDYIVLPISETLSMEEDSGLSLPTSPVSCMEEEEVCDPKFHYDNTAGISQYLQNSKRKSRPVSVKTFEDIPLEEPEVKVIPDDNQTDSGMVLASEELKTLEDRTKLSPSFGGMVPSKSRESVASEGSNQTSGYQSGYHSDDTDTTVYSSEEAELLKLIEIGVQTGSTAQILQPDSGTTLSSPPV
Sequence of RIP3 (Q9Y572 whole entry): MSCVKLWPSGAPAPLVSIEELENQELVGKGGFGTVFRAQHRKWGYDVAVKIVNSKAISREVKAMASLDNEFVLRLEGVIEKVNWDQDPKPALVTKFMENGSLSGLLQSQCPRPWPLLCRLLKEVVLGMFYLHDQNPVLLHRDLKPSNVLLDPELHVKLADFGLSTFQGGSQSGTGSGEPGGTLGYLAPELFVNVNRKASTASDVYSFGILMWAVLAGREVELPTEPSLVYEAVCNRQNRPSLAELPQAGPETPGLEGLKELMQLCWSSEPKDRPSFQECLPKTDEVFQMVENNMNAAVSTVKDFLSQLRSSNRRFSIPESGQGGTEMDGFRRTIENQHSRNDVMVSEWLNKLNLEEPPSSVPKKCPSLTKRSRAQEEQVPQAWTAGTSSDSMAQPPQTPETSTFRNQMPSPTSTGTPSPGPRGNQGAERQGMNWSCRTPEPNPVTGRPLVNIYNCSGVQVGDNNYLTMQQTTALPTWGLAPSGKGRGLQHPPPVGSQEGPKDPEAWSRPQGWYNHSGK

In the case of `CCC(C)(C)C(=O)N(O)Cc1ccccc1` [RIPA-56], in the test with pMLKL, the “pMLKL immunofluorescence after TSZ stimulation” value (“pMLKL immunofluorescence” below) is recorded as “blocked the phosphorylation of MLKL completely”. In the case of `COc1nccnc1NS(=O)(=O)c1ccc(NC(=O)/C=C/c2ccc([N+](=O)[O-])s2)cc1` [NSA, necrosulfonamide, reference compound], the “pMLKL immunofluorescence” value in the test on pMLKL is on record as “small pMLKL dots were dispersed in the cytoplasm”. Besides, the EC50 in the test on HT-29 cells (Experimental-section numbering (compound 1 = Series 1 compound 4), necroptosis induced for 24 h, mean of at least three independent analyses, read-out: EC50 (nM), potency in TSZ-induced necroptosis assays in HT-29 cells) was found to be 447 ± 32 nM. Regarding `CN(c1ccc(NC(=O)Nc2ccc(OC(F)(F)F)cc2)cc1)c1ccnc(Nc2cccc(S(N)(=O)=O)c2)n1` [GW806742X], the “off-target activity against RIP1” value at RIP1 is “off-target activities”. Also, in the test with pMLKL, the “pMLKL immunofluorescence” value is listed as “blocked the phosphorylation of MLKL completely”. In addition, the EC50 with HT-29 cells (Homo sapiens, HT-29, 24 h, read-out: EC50 (nM), potency in TSZ-induced necroptosis assays in HT-29 cells) worked out at 589 ± 12 nM. In addition, the “off-target activity against RIP3” value on RIP3 is “off-target activities”. Also, on VEGFR2, the “off-target activity against other kinases, including VEGFR2” value is “off-target activity”. `COc1ccccc1CS(=O)(=O)c1nc2c(c(=O)n(C)c(=O)n2C)n1C` [Compound 35, 8-(2-methoxybenzylsulfonyl)-1,3,7-trimethyl-1H-purine-2,6(3H,7H)-dione]: the EC50 in the test on HT-29 cells (setting [1]) was in the range of 1000 to 1e+06 nM. For the compound `COc1ccc(OC)c(CS(=O)(=O)c2nc3c(c(=O)n(C)c(=O)n3C)n2C)c1` [Compound 58, 8-(2,5-dimethoxybenzylsulfonyl)-1,3,7-trimethyl-1H-purine-2,6(3H,7H)-dione], the EC50 in the test with HT-29 cells (Homo sapiens, Series 1 (Table 1) compounds 1-146, HT-29 cells, TNF-α/Smac mimetic/z-VAD, 24 hrs, cell viability by ATP level, read-out: Series 1 compound necroptosis activity) was in the range of 1000 to 10000 nM. In the case of `CCCOc1ccc(OC)cc1CS(=O)(=O)c1nc2c(c(=O)n(C)c(=O)n2C)n1C` [Compound 66, 8-(5-methoxy-2-propoxybenzylsulfonyl)-1,3,7-trimethyl-1H-purine-2,6(3H,7H)-dione], the EC50 with HT-29 cells (setting [1]) fell in the range of 1000 to 1e+06 nM. As for `Cn1c(=O)c2c(nc(S(C)(=O)=O)n2C)n(CC#Cc2cc(F)cc(NC(=O)CN3CCOCC3)c2)c1=O` [Compound 20], the EC50 with HT-29 cells (setting [2]) was in the range of 1 to 100 nM. On the same count and under the same terms, the result for `COCC(=O)Nc1cc(C#CCn2c(=O)n(C)c(=O)c3c2nc(S(C)(=O)=O)n3C)cc(NC(=O)C2CC2)c1` [Compound 38] reads 1 to 100 nM.

With `Cn1c(=O)c2c(nc(S(=O)(=O)CC3CC3)n2C)n(CC#Cc2cccc([N+](=O)[O-])c2)c1=O` [Compound 125, 8-((cyclopropylmethyl)sulfonyl)-1,7-dimethyl-3-(3-(3-nitrophenyl)prop-2-yn-1-yl)-3,7-dihydro-1H-purine-2,6-dione], the EC50 in the test on HT-29 cells (Series 1 (Table 1) compounds, HT-29 cells, TNF-α/Smac mimetic/z-VAD, 24 hrs, cell viability by ATP level, read-out: Series 1 compound necroptosis activity) lay in the range of 1 to 1000 nM.
